# According to PMC12274739, “Differential substrate degradation by super-degron: EGFP in wild-type mouse cells, PD-1 requires CRBN humanization” (iScience, 2025):
# Tests used:
# GL-261 = GL-261 orthotopic model, growth in brain by MRI; type: in vivo, mouse; conditions: Pdcd1SD/SD/CrbnI391V/I391V mice, IBR oral administration
# Source text: In vivo proliferation of another tumor cell line, GL-261 […], was also examined to confirm the effect of PD-1 reduction other than the MC-38 adenocarcinoma cell line.[34]
# GL-261 cells were passaged one day before inoculation and resuspended in HBSS at a concentration of 1 × 10^7 cells/mL. The mice were anesthetized by intraperitoneal injection of a combination of the three drugs described in the previous section and immobilized in a stereotactic frame (RWD Life Science, US). After a midline scalp incision, a small burr hole located 2 mm to the right and 1 mm anterior to the bregma was drilled into the skull (AP:1.0 mm, ML:-2.0 mm). The syringe needle was inserted at a depth of 3.0 mm and then raised 0.4 mm to get to a depth of 2.6 mm. 2 μL of cell (2 x10^4 cells) was injected using a 10 μL syringe (Hamilton, USA) connected to a syringe pump (KD Scientific, US; injection rate: 0.5 μL/min). After injection, the needle was left in place for an additional 5 min to avoid backflow. […]
# All the MR experiments were performed at the Medical Research Support Center, Graduate School of Medicine, Kyoto University, Japan. […] The respiratory rate and rectal temperature of the animals were continuously monitored using a dedicated system (Model 1025, MR-compartible Small Animal Monitoring & Gating System; SA Instruments, Inc., NY, USA) and software (PC-SAM V8.04; SA Instruments). […]
# [1] = tested on: CD8+ and CD4+ T cells infiltrating the MC-38 microenvironment; experiment: Markers on T cells from MC-38 tumor microenvironment, flow cytometry day 9; type: in vivo, mouse
# Description: Data are represented as mean ± standard error (SEM). The same experiment was repeated twice to confirm reproducibility. p-values were determined by two-way ANOVA multiple comparisons. ∗∗∗∗p < 0.0001 and ∗p = 0.0267. […] Data are represented as mean ± SEM. The same experiment was repeated twice to confirm reproducibility. p-values were determined by two-way ANOVA multiple comparisons. ∗∗∗∗p < 0.0001, ∗∗∗p = 0.0005, ∗∗p = 0.0067. […] Ratio of PD-1 positive cells and mean fluorescence intensity (MFI) of PD-1 (D), TIM-3 (E), and LAG-3 (F) on CD8^+ and CD4^+ T cells isolated from tumor microenvironments 9 days after the initiation of treatment are shown. Fluorescence intensity of each molecule was measured by flow cytometry, and the geometric MIFs of marker-positive cells were calculated. The data in two experiments were compiled. p-values were determined by the Brown-Forsythe and Welch ANOVA test. Different letters indicate statistically significant differences between groups (p < 0.05). Boxplots: hinges, 25th and 75th percentiles; middle line, median; whiskers, minimum to maximum value.
# Next, the effects of SD-induced PD-1 reduction were compared with those of anti-PD-1 antibody treatment in vivo. […] CD3^+ T cells infiltrating the MC-38 microenvironment were analyzed on day 9 of treatment before the MC-38 tumor masses had shrunk with treatment and no longer provided sufficient T cells for FACS analyses.
# Subsequently, we analyzed the proportion of exhaustion and activation marker-positive cells in each experimental group, as well as the expression levels of each marker in the marker-positive cells.
# P-values were determined by one-way ANOVA with Tukey’s multiple comparisons. IBR: IBR-treated.
# Samples are the same as Figure 7D. CrbnI391V/I391V mice were used for the experiments. Only PD-1 genotypes were shown in D. Pdcd1+/+/CrbnI391V/I391V control Ab: n = 11, Pdcd1+/+/CrbnI391V/I391V […]
# E Expression analyses of PD-1, TIM-3, LAG-3, TIGIT and CX3CR1 on T cells by flow cytometry.
# Cells in microenvironments were sorted by indicated gates. Dotted lines indicate isotype control. […]
# PD-1 treatment. […] Different letters indicate statistically significant differences between groups (p < 0.05). Box plots: hinges, 25th and 75th percentiles; middle line, median; whiskers, minimum to maximum value.
structure (smiles),measurement,setting,value
"O=C1CC[C@H](N2Cc3c(OCc4ccc(CN5CCOCC5)cc4)cccc3C2=O)C(=O)N1 [IBR, iberdomide]",proliferation of GL-261,GL-261,suppressed
same,TIM-3 in CD8+ T cells vs untreated,"[1]; IBR: Pdcd1SD/SD/CrbnI391V/I391V, cell ratio and expression level, antibody: Pdcd1+/+/CrbnI391V/I391V, expression level",decreased
same,CX3CR1 in CD8+ T cells vs untreated,"[1]; IBR: Pdcd1SD/SD/CrbnI391V/I391V, antibody: Pdcd1+/+/CrbnI391V/I391V, CX3CR1+ cell ratio",comparable between IBR-treated and untreated groups
same,LAG-3 and TIGIT in CD8+ T cells vs untreated,"[1]; IBR: Pdcd1SD/SD/CrbnI391V/I391V, antibody: Pdcd1+/+/CrbnI391V/I391V, expression level",remained comparable
same,LAG-3 expression levels in CD4+ T cells,[1]; Pdcd1SD/SD/CrbnI391V/I391V,higher than those in the untreated group
same,PD-1 expression level in PD-1+ CD8+ T cells vs untreated,"[1]; Pdcd1SD/SD/CrbnI391V/I391V, day 9",significant reduction
same,frequency / number of T cells infiltrating the MC-38 microenvironment,[1]; day 9 of treatment,did not differ
